From patent publication US20230285365A1, “USE OF A DHODH INHIBITOR COMPOUND IN COMBINATION CANCER THERAPY” (Servier Pharmaceuticals LLC, priority 2020, published 2023) come the findings set out here.

For the assay, the system named is mouse lymphoma models (DLBCL, MCL, Burkitt lymphoma, Hodgkin lymphoma, undifferentiated lymphoma). Briefly: Growth inhibition study in tumor-bearing mice, various mouse lymphoma models. In kind it is in vivo. The note with it: doses as in treatment table (Compound 1 100 mg/kg BID, rituximab 20 mg/kg BIW, CHOP), FIGS. 1-3. An excerpt: See e.g., FIGS. 1-3, which show complete regression of certain diffuse large B-cell lymphoma (DLBCL), mantle cell lymphoma (MCL), Burkitt lymphoma, Hodgkin lymphoma, and undifferentiated lymphoma mouse models following treatment with Compound 1 and R-CHOP.
Growth Inhibition Study of Compound 1 with R-CHOP in Tumor-Bearing Mice.
Mice were implanted subcutaneously with 5×10^6 to 2×10^7 cells as required for each model. Tumor volumes were monitored twice a week until tumors reach approximately 150 mm^3. Once tumor burden was at this level, mice were randomized and treated with the following.
At the study end, tumor tissue, and plasma were collected 1 hr. post final dose of Compound 1. Treatment was well tolerated. FIGS. 1-3 show the percent change in tumor volume for the mouse models treated. […] A similar result was observed across the multiple subsets of lymphoma tested.

As for rituximab, the “tumor response (percent change in tumor volume)” value is listed as “tumor growth continued”.
